# Experimental data from US10758534B2 (Vertex Pharmaceuticals Incorporated, priority 2014, dated 2020).
# Where two headings read alike, the source gives them in different places.
# Biological target: T1, F508del (Homo sapiens, UniProt P13569, DEL508-508)
# T1 construct: expressed in transfected cells
# Test: Protocol 2: FRET membrane potential optical assay (VIPR), identification of correction compounds
# Format: cell-based
# From the text: Membrane potential optical methods for assaying F508del modulation properties of compounds.
# These voltage sensitive assays are based on the change in fluorescence resonant energy transfer (FRET) between the membrane-soluble, voltage-sensitive dye, DiSBAC2(3), and a fluorescent phospholipid, CC2-DMPE, which is attached to the outer leaflet of the plasma membrane and acts as a FRET donor. Changes in membrane potential (Vm) cause the negatively charged DiSBAC2(3) to redistribute across the plasma membrane and the amount of energy transfer from CC2-DMPE changes accordingly. The changes in fluorescence emission were monitored using VIPR™ II, which is an integrated liquid handler and fluorescent detector designed to conduct cell-based screens in 96- or 384-well microtiter plates.
# To identify small molecules that correct the trafficking defect associated with F508del; a single-addition HTS assay format was developed. The cells were incubated in serum-free medium for 16 hrs at 37° C. in the presence or absence (negative control) of test compound. As a positive control, cells plated in 384-well plates were incubated for 16 hrs at 27° C. to “temperature-correct” F508del. The cells were subsequently rinsed 3× with Krebs Ringers solution and loaded with the voltage-sensitive dyes. To activate F508del, 10 μM forskolin and the CFTR potentiator, genistein (20 μM), were added along with Cl^−-free medium to each well. The addition of Cl^−-free medium promoted Cl^− efflux in response to F508del activation and the resulting membrane depolarization was optically monitored using the FRET-based voltage-sensor dyes.
# • Bath Solution #1: (in mM) NaCl 160, KCl 4.5, CaCl2 2, MgCl2 1, HEPES 10, pH 7.4 with NaOH. • Chloride-free bath solution: Chloride salts in Bath Solution #1 (above) are substituted with gluconate salts. • CC2-DMPE: Prepared as a 10 mM stock solution in DMSO and stored at −20° C. • DiSBAC2(3): Prepared as a 10 mM stock in DMSO and stored at −20° C. Cell Culture
# NIH3T3 mouse fibroblasts stably expressing F508del are used for optical measurements of membrane potential. The cells are maintained at 37° C. in 5% CO2 and 90% humidity in Dulbecco's modified Eagle's medium supplemented with 2 mM glutamine, 10% fetal bovine serum, 1×NEAA, β-ME, 1× pen/strep, and 25 mM HEPES in 175 cm^2 culture flasks. For all optical assays, the cells were seeded at 30,000/well in 384-well matrigel-coated plates and cultured for 2 hrs at 37° C. before culturing at 27° C. for 24 hrs for the potentiator assay. For the correction assays, the cells are cultured at 27° C. or 37° C. with and without compounds for 16-24 hours.
# [1] = F508del CFTR modulator activity, compounds of Table 1, read-out: EC30
# [2] = Table 3, compounds of Table 1 as modulators of CFTR activity, protocol not stated
# T1 sequence (P13569 with tags, fused parts or gaps DEL508-508): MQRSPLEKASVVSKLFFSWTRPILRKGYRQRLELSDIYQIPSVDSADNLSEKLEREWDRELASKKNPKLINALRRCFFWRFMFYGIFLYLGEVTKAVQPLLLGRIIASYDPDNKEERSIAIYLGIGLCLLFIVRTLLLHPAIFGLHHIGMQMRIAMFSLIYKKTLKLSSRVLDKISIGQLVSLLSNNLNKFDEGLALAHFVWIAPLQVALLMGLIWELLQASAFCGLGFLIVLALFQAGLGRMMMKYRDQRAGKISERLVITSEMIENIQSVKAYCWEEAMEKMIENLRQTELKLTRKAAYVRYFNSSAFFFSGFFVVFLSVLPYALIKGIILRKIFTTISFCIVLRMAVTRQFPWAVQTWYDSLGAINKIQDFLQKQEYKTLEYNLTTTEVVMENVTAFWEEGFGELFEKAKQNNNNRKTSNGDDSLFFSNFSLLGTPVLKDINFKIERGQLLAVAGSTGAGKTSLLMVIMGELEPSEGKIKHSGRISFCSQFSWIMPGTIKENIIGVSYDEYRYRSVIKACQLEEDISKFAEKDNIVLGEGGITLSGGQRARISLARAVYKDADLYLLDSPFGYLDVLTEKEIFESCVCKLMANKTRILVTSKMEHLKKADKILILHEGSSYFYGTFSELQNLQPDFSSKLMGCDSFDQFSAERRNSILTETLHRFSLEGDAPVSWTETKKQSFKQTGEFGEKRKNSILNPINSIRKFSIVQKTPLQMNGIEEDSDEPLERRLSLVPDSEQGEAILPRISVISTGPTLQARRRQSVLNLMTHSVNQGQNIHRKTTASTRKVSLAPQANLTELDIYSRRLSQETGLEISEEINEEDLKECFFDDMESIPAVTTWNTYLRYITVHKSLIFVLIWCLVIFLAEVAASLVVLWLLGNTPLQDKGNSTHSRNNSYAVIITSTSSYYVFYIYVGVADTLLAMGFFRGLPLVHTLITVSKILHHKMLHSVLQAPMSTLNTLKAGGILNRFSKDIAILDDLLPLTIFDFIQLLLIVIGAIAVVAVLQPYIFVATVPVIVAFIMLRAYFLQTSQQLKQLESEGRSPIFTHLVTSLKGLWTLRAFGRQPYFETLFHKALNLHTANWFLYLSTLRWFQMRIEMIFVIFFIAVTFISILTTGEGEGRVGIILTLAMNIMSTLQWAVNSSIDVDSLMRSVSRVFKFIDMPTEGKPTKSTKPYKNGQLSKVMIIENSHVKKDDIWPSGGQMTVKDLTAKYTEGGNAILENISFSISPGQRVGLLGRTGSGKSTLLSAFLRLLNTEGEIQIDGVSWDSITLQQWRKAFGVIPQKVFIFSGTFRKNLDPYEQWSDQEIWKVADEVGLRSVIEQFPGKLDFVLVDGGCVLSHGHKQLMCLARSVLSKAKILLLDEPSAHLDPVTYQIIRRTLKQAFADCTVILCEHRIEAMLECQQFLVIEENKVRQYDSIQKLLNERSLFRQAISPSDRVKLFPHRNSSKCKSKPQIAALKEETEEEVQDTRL
EC30 [1] [µM],EC30 [2],Structure (SMILES)
3 to 10,–,"CC(=O)c1ccc(Nc2cccc(S(=O)(=O)NC(=O)c3cccnc3N3CC(C)CC3(C)C)n2)cc1 (centres unmarked) [Compound 2328, N—[[6-(4-acetylanilino)-2-pyridyl]sulfonyl]-2-(2,2,4-trimethylpyrrolidin-1-yl)pyridine-3-carboxamide]"
< 3,–,"CC(C)=CCOc1cccc(S(=O)(=O)NC(=O)c2cccnc2N2CC(C)CC2(C)C)n1 (centres unmarked) [Compound 2648, N—[[6-(3-methylbut-2-enoxy)-2-pyridyl]sulfonyl]-2-(2,2,4-trimethylpyrrolidin-1-yl)pyridine-3-carboxamide]"
< 3,–,"CC1CN(c2ncccc2C(=O)NS(=O)(=O)c2cccc(NC3CCCC3)n2)C(C)(C)C1 (centres unmarked) [Compound 2053, N—[[6-(cyclopentylamino)-2-pyridyl]sulfonyl]-2-(2,2,4-trimethylpyrrolidin-1-yl)pyridine-3-carboxamide]"
–,+++ (“+++” means <3 uM),"CC1CCN(c2nc3c(cc2C(=O)NS(=O)(=O)c2nccnc2N)CCCC3(C)C)CC1 [Compound 197, N-(3-aminopyrazin-2-yl)sulfonyl-8,8-dimethyl-2-(4-methyl-1-piperidyl)-6,7-dihydro-5H-quinoline-3-carboxamide]"
3 to 10,–,"CC1CN(c2ncccc2C(=O)NS(=O)(=O)c2cccc(N3CCN(C4CCCCC4)CC3)n2)C(C)(C)C1 (centres unmarked) [Compound 2601, N—[[6-(4-cyclohexylpiperazin-1-yl)-2-pyridyl]sulfonyl]-2-(2,2,4-trimethylpyrrolidin-1-yl)pyridine-3-carboxamide]"
–,+++ (“+++” means <3 uM),"CC(C)(C)c1cc(C(=O)NS(=O)(=O)c2cccc(N)c2)n(Cc2c(F)cccc2C(F)(F)F)n1 [Compound 239, N-(3-aminophenyl)sulfonyl-5-tert-butyl-2-[[2-fluoro-6-(trifluoromethyl)phenyl]methyl]pyrazole-3-carboxamide]"
3 to 10,–,COC1CCN(c2cccc(S(=O)(=O)NC(=O)c3cccnc3N3CC(C)CC3(C)C)n2)CC1 (centres unmarked) [Compound 2732]
3 to 10,–,"CC1CN(c2ncccc2C(=O)NS(=O)(=O)c2cccc(Nc3c(F)cccc3F)n2)C(C)(C)C1 (centres unmarked) [Compound 2513, N—[[6-(2,6-difluoroanilino)-2-pyridyl]sulfonyl]-2-(2,2,4-trimethylpyrrolidin-1-yl)pyridine-3-carboxamide]"
–,+++ (“+++” means <3 uM),"Cc1cc(C)c(Oc2nc(C(C)(C)C)ccc2C(=O)NS(=O)(=O)c2ccncc2)c(C)c1 [Compound 117, 6-tert-butyl-N-(4-pyridylsulfonyl)-2-(2,4,6-trimethylphenoxy)pyridine-3-carboxamide]"
–,+++ (“+++” means <3 uM),"COc1ccc(F)cc1-c1ccc(C(=O)NS(=O)(=O)c2cccc(N)n2)c(Oc2c(C)cc(C)cc2C)n1 [Compound 700, N-[(6-amino-2-pyridyl)sulfonyl]-6-(5-fluoro-2-methoxy-phenyl)-2-(2,4,6-trimethylphenoxy)pyridine-3-carboxamide]"
< 3,–,"C[C@@H]1CN(c2nc(-c3ccc(Cl)cc3)ccc2C(=O)NS(=O)(=O)c2cccnc2N)C(C)(C)C1 [Compound 2367, N-[(2-amino-3-pyridyl)sulfonyl]-6-(4-chlorophenyl)-2-[(4S)-2,2,4-trimethylpyrrolidin-1-yl]pyridine-3-carboxamide]"
< 3,–,"C[C@@H]1CN(c2nc(-c3ccc(F)cc3F)ccc2C(=O)NS(=O)(=O)c2cccnc2N)C(C)(C)C1 [Compound 2447, N-[(2-amino-3-pyridyl)sulfonyl]-6-(2,4-difluorophenyl)-2-[(4S)-2,2,4-trimethylpyrrolidin-1-yl]pyridine-3-carboxamide]"
–,+++ (“+++” means <3 uM),"Cc1cc(C)c(Oc2nc(-c3ccc(F)cc3F)ccc2C(=O)NS(=O)(=O)c2cccc(N)n2)c(C)c1 [Compound 439, N-[(6-amino-2-pyridyl)sulfonyl]-6-(2,4-difluorophenyl)-2-(2,4,6-trimethylphenoxy)pyridine-3-carboxamide]"
–,+++ (“+++” means <3 uM),"Cc1cc(C)c(Cn2nc(C(C)(C)C)cc2C(=O)NS(=O)(=O)c2cccc(N)c2C)c(C)c1 [Compound 123, N-(3-amino-2-methyl-phenyl)sulfonyl-5-tert-butyl-2-[(2,4,6-trimethylphenyl)methyl]pyrazole-3-carboxamide]"
–,++ (“++” means between 3 uM and 10 uM),"COc1ccc2cc(C(=O)NS(=O)(=O)c3cccc(N)c3)n(Cc3c(C)cccc3C)c2c1 [Compound 116, N-(3-aminophenyl)sulfonyl-1-[(2,6-dimethylphenyl)methyl]-6-methoxy-indole-2-carboxamide]"
–,+++ (“+++” means <3 uM),"Cc1cc(C)c(Cn2nc(C(C)(C)C)cc2C(=O)NS(=O)(=O)c2ccccc2C#N)c(C)c1 [Compound 266, 5-tert-butyl-N-(2-cyanophenyl)sulfonyl-2-[(2,4,6-trimethylphenyl)methyl]pyrazole-3-carboxamide]"
3 to 10,–,"COc1cccc(Nc2cccc(S(=O)(=O)NC(=O)c3cccnc3N3CC(C)CC3(C)C)n2)n1 (centres unmarked) [Compound 2420, N—[[6-[(6-methoxy-2-pyridyl)amino]-2-pyridyl]sulfonyl]-2-(2,2,4-trimethylpyrrolidin-1-yl)pyridine-3-carboxamide]"

Structure (SMILES),EC30 [1] [µM],EC30 [2]
"Cc1cccc(C)c1Oc1nc(-c2cc(F)cc(OCC(C)C)c2)ccc1C(=O)NS(=O)(=O)c1cccc(N)n1 [Compound 639, N-[(6-amino-2-pyridyl)sulfonyl]-2-(2,6-dimethylphenoxy)-6-(3-fluoro-5-isobutoxy-phenyl)pyridine-3-carboxamide]",–,+++ (“+++” means <3 uM)
"CC(C)COc1cc(F)cc(-c2ccc(C(=O)NS(=O)(=O)c3cccc(N)n3)c(N3CC[C@@H](C)C3(C)C)n2)c1 [Compound 657, N-[(6-amino-2-pyridyl)sulfonyl]-6-(3-fluoro-5-isobutoxy-phenyl)-2-[(3R)-2,2,3-trimethylpyrrolidin-1-yl]pyridine-3-carboxamide]",–,+++ (“+++” means <3 uM)
"CCC1(C)CC(C)CN1c1nc(-c2cc(F)cc(OCC(C)C)c2)ccc1C(=O)NS(=O)(=O)c1cccc(N)n1 (single isomer, unassigned) [Compound 2213, N-[(6-amino-2-pyridyl)sulfonyl]-2-(2-ethyl-2,4-dimethyl-pyrrolidin-1-yl)-6-(3-fluoro-5-isobutoxy-phenyl)pyridine-3-carboxamide]",< 3,–
"CC(C)COc1cc(F)cc(-c2ccc(C(=O)NS(=O)(=O)c3ccn[nH]3)c(N3CCCCC3C)n2)c1 (centres unmarked) [Compound 442, 6-(3-fluoro-5-isobutoxy-phenyl)-2-(2-methyl-1-piperidyl)-N-(1H-pyrazol-5-ylsulfonyl)pyridine-3-carboxamide]",–,+++ (“+++” means <3 uM)
"CC(C)COc1cc(F)cc(-c2ccc(C(=O)NS(=O)(=O)c3cccc(N)n3)c(OC(C)c3cccc(F)c3)n2)c1 (centres unmarked) [Compound 562, N-[(6-amino-2-pyridyl)sulfonyl]-6-(3-fluoro-5-isobutoxy-phenyl)-2-[1-(3-fluorophenyl)ethoxy]pyridine-3-carboxamide]",–,+++ (“+++” means <3 uM)
"CC(C)COc1cc(F)cc(-c2ccc(C(=O)NS(=O)(=O)c3cccc(N)n3)c(N3CC(F)(F)CC3(C)C)n2)c1 [Compound 2631, N-[(6-amino-2-pyridyl)sulfonyl]-2-(4,4-difluoro-2,2-dimethyl-pyrrolidin-1-yl)-6-(3-fluoro-5-isobutoxy-phenyl)pyridine-3-carboxamide]",< 3,–
